Source: PubChem BioAssay AID1963851 (Molecular Pharmacology Branch, DTP, NCI, 2024)

System: 188146-221-R-J1-PDC complex spheroid viability
Assay: Anticancer human tumor 188146-221-R-J1-PDC patient-derived colon adenocarcinoma cell line growth inhibition [POLQ]
Details: for IC50: curve of first compound; for viability, T/C: stronger effect = lower value
Method in brief: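 Three-cell-type spheroids modelling solid tumor plus stroma served as the readout system; POL inhibitors were tested individually and in combination, concentration ranges set by clinical Cmax where known.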

[1] = second compound 0.0316 µM, first compound 0.00316 µM
[2] = second compound 0.0316 µM, first compound 0.01 µM
[3] = second compound 0.0316 µM, first compound 0.0316 µM
[4] = second compound 0.0316 µM, first compound 0.1 µM
[5] = second compound 0.1 µM, first compound 0.00316 µM
[6] = second compound 0.1 µM, first compound 0.01 µM
[7] = second compound 0.1 µM, first compound 0.0316 µM
[8] = second compound 0.1 µM, first compound 0.1 µM
[9] = second compound 0.316 µM, first compound 0.00316 µM
[10] = second compound 0.316 µM, first compound 0.01 µM
[11] = second compound 0.316 µM, first compound 0.0316 µM
[12] = second compound 0.316 µM, first compound 0.1 µM
[13] = second compound 1 µM, first compound 0.00316 µM
[14] = second compound 1 µM, first compound 0.01 µM
[15] = second compound 1 µM, first compound 0.0316 µM
[16] = second compound 1 µM, first compound 0.1 µM
[17] = second compound 3.16 µM, first compound 0.00316 µM
[18] = second compound 3.16 µM, first compound 0.01 µM
[19] = second compound 3.16 µM, first compound 0.0316 µM
[20] = second compound 3.16 µM, first compound 0.1 µM
[21] = second compound 10 µM, first compound 0.00316 µM
[22] = second compound 10 µM, first compound 0.01 µM
[23] = second compound 10 µM, first compound 0.0316 µM
[24] = second compound 10 µM, first compound 0.1 µM
[25] = second compound 0.0316 µM, first compound 0.316 µM
[26] = second compound 0.0316 µM, first compound 1 µM
[27] = second compound 0.1 µM, first compound 0.316 µM
[28] = second compound 0.1 µM, first compound 1 µM
[29] = second compound 0.316 µM, first compound 0.316 µM
[30] = second compound 0.316 µM, first compound 1 µM
[31] = second compound 1 µM, first compound 0.316 µM
[32] = second compound 1 µM, first compound 1 µM
[33] = second compound 3.16 µM, first compound 0.316 µM
[34] = second compound 3.16 µM, first compound 1 µM
[35] = second compound 10 µM, first compound 0.316 µM
[36] = second compound 10 µM, first compound 1 µM
[37] = second compound 0.0316 µM, first compound 3.16 µM
[38] = second compound 0.0316 µM, first compound 10 µM
[39] = second compound 0.1 µM, first compound 3.16 µM
[40] = second compound 0.1 µM, first compound 10 µM
[41] = second compound 0.316 µM, first compound 3.16 µM
[42] = second compound 0.316 µM, first compound 10 µM
[43] = second compound 1 µM, first compound 3.16 µM
[44] = second compound 1 µM, first compound 10 µM
[45] = second compound 3.16 µM, first compound 3.16 µM
[46] = second compound 3.16 µM, first compound 10 µM
[47] = second compound 10 µM, first compound 3.16 µM
[48] = second compound 10 µM, first compound 10 µM
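Further: spheroids exposed to compounds for seven days.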
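Wherever viability, T/C is given: 100% = DMSO vehicle control viability.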

Compound: CC[C@@]1(O)C(=O)OCc2c1cc1n(c2=O)Cc2cc3c(CN(C)C)c(O)ccc3nc2-1 + Nc1ccc(C#CCN(C(=O)Cc2ncc(C(F)(F)F)cc2C(F)(F)F)c2ccc(F)cc2)nn1
- IC50 (second compound 0.0316 µM): > 100 nM
- IC50 (second compound 0.1 µM): > 100 nM
- IC50 (second compound 0.316 µM): > 100 nM
- IC50 (second compound 1 µM): > 100 nM
- IC50 (second compound 3.16 µM): > 100 nM
- IC50 (second compound 10 µM): > 100 nM
- viability, T/C (second compound 0.0316 µM, first compound 0.000316 µM): 89.7%
- viability, T/C (second compound 0.0316 µM, first compound 0.001 µM): 95.7%
- viability, T/C [1]: 84.3%
- viability, T/C [2]: 101%
- viability, T/C [3]: 96.4%
- viability, T/C [4]: 73.5%
- viability, T/C (second compound 0.1 µM, first compound 0.000316 µM): 118%
- viability, T/C (second compound 0.1 µM, first compound 0.001 µM): 84.1%
- viability, T/C [5]: 95.1%
- viability, T/C [6]: 100%
- viability, T/C [7]: 84.9%
- viability, T/C [8]: 74.9%
- viability, T/C (second compound 0.316 µM, first compound 0.000316 µM): 104%
- viability, T/C (second compound 0.316 µM, first compound 0.001 µM): 88.4%
- viability, T/C [9]: 101%
- viability, T/C [10]: 97.5%
- viability, T/C [11]: 103%
- viability, T/C [12]: 69.5%
- viability, T/C (second compound 1 µM, first compound 0.000316 µM): 103%
- viability, T/C (second compound 1 µM, first compound 0.001 µM): 102%
- viability, T/C [13]: 90.5%
- viability, T/C [14]: 86.4%
- viability, T/C [15]: 82.3%
- viability, T/C [16]: 68.2%
- viability, T/C (second compound 3.16 µM, first compound 0.000316 µM): 106%
- viability, T/C (second compound 3.16 µM, first compound 0.001 µM): 92.9%
- viability, T/C [17]: 95.1%
- viability, T/C [18]: 89.3%
- viability, T/C [19]: 83%
- viability, T/C [20]: 80.1%
- viability, T/C (second compound 10 µM, first compound 0.000316 µM): 100%
- viability, T/C (second compound 10 µM, first compound 0.001 µM): 96.8%
- viability, T/C [21]: 98.9%
- viability, T/C [22]: 98.3%
- viability, T/C [23]: 90.5%
- viability, T/C [24]: 66.2%

Compound: COc1cccc(OCCCN)c1-c1cc(Nc2cnc(C#N)cn2)n[nH]1 + Nc1ccc(C#CCN(C(=O)Cc2ncc(C(F)(F)F)cc2C(F)(F)F)c2ccc(F)cc2)nn1
- IC50 (second compound 0.0316 µM): 64.2 nM
- IC50 (second compound 0.1 µM): 57.3 nM
- IC50 (second compound 0.316 µM): 47.7 nM
- IC50 (second compound 1 µM): 29.9 nM
- IC50 (second compound 3.16 µM): 37.5 nM
- IC50 (second compound 10 µM): 28.6 nM
- viability, T/C [1]: 94.9%
- viability, T/C [2]: 96%
- viability, T/C [3]: 77.4%
- viability, T/C [4]: 32.7%
- viability, T/C [25]: 16.2%
- viability, T/C [26]: 13.6%
- viability, T/C [5]: 104%
- viability, T/C [6]: 109%
- viability, T/C [7]: 66.6%
- viability, T/C [8]: 34.3%
- viability, T/C [27]: 17.3%
- viability, T/C [28]: 14%
- viability, T/C [9]: 106%
- viability, T/C [10]: 99.1%
- viability, T/C [11]: 59.1%
- viability, T/C [12]: 30.9%
- viability, T/C [29]: 16.9%
- viability, T/C [30]: 12.2%
- viability, T/C [13]: 108%
- viability, T/C [14]: 111%
- viability, T/C [15]: 46.8%
- viability, T/C [16]: 28.2%
- viability, T/C [31]: 15.6%
- viability, T/C [32]: 14%
- viability, T/C [17]: 91.5%
- viability, T/C [18]: 85.1%
- viability, T/C [19]: 54.3%
- viability, T/C [20]: 23.7%
- viability, T/C [33]: 15.6%
- viability, T/C [34]: 13.7%
- viability, T/C [21]: 119%
- viability, T/C [22]: 87.8%
- viability, T/C [23]: 47.6%
- viability, T/C [24]: 21.7%
- viability, T/C [35]: 17%
- viability, T/C [36]: 15.4%

Compound: Nc1ccn(C2OC(CO)C(O)C2(F)F)c(=O)n1 (stereo not drawn) + COC1C(OC(N)=O)C(O)C(Oc2ccc3c(O)c(NC(=O)c4ccc(O)c(CC=C(C)C)c4)c(=O)oc3c2C)OC1(C)C
- IC50 (second compound 0.0316 µM): < 31.6 nM
- IC50 (second compound 0.1 µM): 32.1 nM
- IC50 (second compound 0.316 µM): < 31.6 nM
- IC50 (second compound 1 µM): < 31.6 nM
- IC50 (second compound 3.16 µM): < 31.6 nM
- IC50 (second compound 10 µM): < 31.6 nM
- viability, T/C [3]: 46.8%
- viability, T/C [4]: 29.5%
- viability, T/C [25]: 17.4%
- viability, T/C [26]: 14.4%
- viability, T/C [37]: 15.2%
- viability, T/C [38]: 13.2%
- viability, T/C [7]: 50.4%
- viability, T/C [8]: 29.4%
- viability, T/C [27]: 13.8%
- viability, T/C [28]: 12.5%
- viability, T/C [39]: 14.8%
- viability, T/C [40]: 14.3%
- viability, T/C [11]: 41.1%
- viability, T/C [12]: 28.7%
- viability, T/C [29]: 21.8%
- viability, T/C [30]: 12.2%
- viability, T/C [41]: 12%
- viability, T/C [42]: 11%
- viability, T/C [15]: 41.5%
- viability, T/C [16]: 24.8%
- viability, T/C [31]: 19.2%
- viability, T/C [32]: 13.4%
- viability, T/C [43]: 13.5%
- viability, T/C [44]: 12.6%
- viability, T/C [19]: 46.3%
- viability, T/C [20]: 26.1%
- viability, T/C [33]: 16.2%
- viability, T/C [34]: 13.5%
- viability, T/C [45]: 14%
- viability, T/C [46]: 13.9%
- viability, T/C [23]: 45.6%
- viability, T/C [24]: 20.5%
- viability, T/C [35]: 16.1%
- viability, T/C [36]: 12.4%
- viability, T/C [47]: 16.4%
- viability, T/C [48]: 13.3%

Compound: COc1ccc([C@@H](O)c2cc(-c3ncnc4cc(N5CCOCC5)ccc34)c(F)cc2Cl)nn1 + COC1C(OC(N)=O)C(O)C(Oc2ccc3c(O)c(NC(=O)c4ccc(O)c(CC=C(C)C)c4)c(=O)oc3c2C)OC1(C)C
- IC50 (second compound 0.0316 µM): 4190 nM
- IC50 (second compound 0.1 µM): 5770 nM
- IC50 (second compound 0.316 µM): 4270 nM
- IC50 (second compound 1 µM): 5010 nM
- IC50 (second compound 3.16 µM): 5750 nM
- IC50 (second compound 10 µM): 5360 nM
- viability, T/C [3]: 105%
- viability, T/C [4]: 95.4%
- viability, T/C [25]: 81.4%
- viability, T/C [26]: 76.8%
- viability, T/C [37]: 61.2%
- viability, T/C [38]: 27.1%
- viability, T/C [7]: 92.8%
- viability, T/C [8]: 89.3%
- viability, T/C [27]: 96.2%
- viability, T/C [28]: 84.6%
- viability, T/C [39]: 65.3%
- viability, T/C [40]: 36.3%
- viability, T/C [11]: 107%
- viability, T/C [12]: 91.3%
- viability, T/C [29]: 102%
- viability, T/C [30]: 83.4%
- viability, T/C [41]: 58.7%
- viability, T/C [42]: 26.2%
- viability, T/C [15]: 96%
- viability, T/C [16]: 96.9%
- viability, T/C [31]: 97.5%
- viability, T/C [32]: 83.2%
- viability, T/C [43]: 65.3%
- viability, T/C [44]: 28.1%
- viability, T/C [19]: 108%
- viability, T/C [20]: 95.8%
- viability, T/C [33]: 97.8%
- viability, T/C [34]: 84.3%
- viability, T/C [45]: 72.1%
- viability, T/C [46]: 31.4%
- viability, T/C [23]: 108%
- viability, T/C [24]: 84.5%
- viability, T/C [35]: 113%
- viability, T/C [36]: 63.4%
- viability, T/C [47]: 75.7%
- viability, T/C [48]: 30%
